Holding throughout (type): cell-based
The target in one data set is human CXCR3A (Homo sapiens (Human), UniProt P49682). Put plainly: FLIPR assay (calcium flux, CXCL10-induced). As to conditions: CHO-K1 cells expressing human CXCR3A coupled to Galpha(16); CXCL10 agonist at 20 nM. The protocol: The bioactivity of compounds is tested in a fluorometric imaging plate reader (FLIPR: Molecular Devices) using engineered CHO-K1 cells expressing the human CXCR3A (GenBank: AY242128) coupled to a G protein (Galpha(16)). Cells are plated the day prior to bioassay in F12 medium supplemented with 10% FBS and G418 and hygromycin antibiotics to maintain recombinant selection. At the day of bioassay, cells are washed and dye loaded for one hour with Fluo-4-AM (Invitrogen) in Hanks Balanced Salt Solution (Invitrogen), buffered with 20 mM Hepes at pH 7.4 and sodium bicarbonate (0.038%), containing 5 mM probenecid. This buffer, but lacking the dye and containing probenecid at a concentration of 2.5 mM, is also used for washing steps (wash buffer); or lacking both dye and probenecid but supplemented with 0.1% BSA for compound dilution steps (dilution buffer). Cells are washed free of excess dye and 60 microliter of wash buffer is added. Stock solutions of test compounds are made up at a concentration of 10 mM in DMSO, and serially diluted in dilution buffer to concentrations required for inhibition dose response curves. After a 10 minute incubation period at 37° C., 10 microliters of each compound dilution are transferred from a compound plate to the plate containing the recombinant cells in the FLIPR instrument according to the manufacturer's instructions. Following basal readings, 10 microliter CXCL10 agonist at a concentration of 20 nM (from Peprotech) is added, again using the FLIPR instrument. Changes in fluorescence are monitored before and after addition of the test compounds. Emission peak values above base level after CXCL10 addition are exported after base line subtraction.
(§1) The calculated IC50 values may fluctuate depending on the daily assay performance. Fluctuations of this kind are known to those skilled in the art. In the case where IC50 values have been determined several times for the same compound, mean values are given. Data for the FLIPR assay are shown in Table 1 and for the receptor internalization assay (RIA) in Table 2.

The target of another data set is CXCR3 (Homo sapiens (Human), UniProt P49682). Put plainly: Receptor internalization assay (RIA) in human whole blood. As to conditions: final CXCL10 9 nM, CXCR3 surface expression on CD4 positive cells. As for the experimental part:
Stock solutions of test compounds are made up at a concentration of 10 mM in DMSO, and serially diluted in PBS containing 0.5% BSA to concentrations required for inhibition dose response curves. Diluted compounds are then mixed with an equal volume of CXCL10 (Peprotech) diluted in PBS. Anticoagulated venous human whole blood is added to the mixture, which is then incubated in a CO2 incubator at 37° C. to allow for ligand mediated receptor internalization (final CXCL10 concentration is 9 nM). After 30 min, the blood is mixed with fluorescently labeled CXCR3 and CD4 specific antibodies (Becton Dickinson) and incubated on ice for 10 minutes. Samples are then mixed with BD FACS Lysing Solution (Becton Dickinson) in order to eliminate red blood cells. After washing the cells with PBS containing 0.5% BSA, the samples are then analyzed in a flow cytometer (FACS Canto II, Becton Dickinson). For data analysis using FACSDiva software (Becton Dickinson), the mean fluorescence corresponding to CXCR3 cell surface expression was determined on CD4 positive cells.
as §1

For a further data set, the target named is hERG K channel (Homo sapiens (Human), UniProt Q12809). As to the kind of experiment: hERG Q-Patch assay. The following applies: CHO cells expressing hERG, K+ tail current. As for the experimental part: Compounds are evaluated for block of the hERG K channel using CHO cells stably expressing the hERG gene (accession number U04270, bSys, Witterswil, Switzerland) and the QPatch robotic platform (Sophion, Ballerup, Denmark) in single-cell mode at room temperature. Cells are grown in culture flasks at 37° C. in 5% CO2, in culture medium (Ham's F-12 Nutrient Mixture, Invitrogen 21765-029) supplemented with 9% (v/v) fetal calf serum, 0.9% Penicillin/Streptomycin (10,000 U/mL, Invitrogen 15140148), 100 μg/mL Hygromycin B (Invitrogen 10687010). When the cells are ˜80% confluent (every 2-3 days), they are either split for further culture or used for electrophysiology. For further culture, cells are detached with 0.25% Trypsin EDTA solution (Invitrogen 25200-056) and a fraction of the cells (10-30%) is reseeded in culture medium. For electrophysiology, on the experimental day, cells are detached with 0.25% Trypsin EDTA solution and all cells are suspended in suspension medium (293 SFM II, Invitrogen 11686-029) supplemented with 20 mM HEPES and 0.04 mg/mL Trypsin inhibitor. Cells are kept in suspension medium at 32-35° C. in the QPatch robot until use, at which time aliquots are transferred to the extracellular solution (in mM: NaCl 150; KCl 4; CaCl2 1.2; MgCl2 1; HEPES 10; pH 7.4 with NaOH) containing 0.3% v/v DMSO and applied to the test plates. K+ currents are measured with the patch-voltage-clamp technique in the whole-cell configuration with the internal solution (in mM: KCl, 140; NaCl, 10; MgCl2, 1; HEPES, 10; EGTA, 5; pH=7.2 with KOH). Currents are low-pass filtered using the internal Bessel filter of the QPatch robot with a cut-off frequency of 2 kHz and are digitized at 10 kHz. K^+ tail currents are produced from a holding voltage of −80 mV by a 500-ms depolarization to +20 mV followed by a 500-ms repolarization to −40 mV; tail current amplitudes are measured at the end of the repolarization to −40 mV. The pulse pattern is repeated every 10 sec during the experiment, baseline K^+ current is measured after 3 min in extracellular solution, test-solution containing compound is then applied, and K^+ current in presence of compound is measured 3 minutes after application to the cells. The respective test-solution is prepared by (1) dissolving the test-compound in pure DMSO, (2) diluting this DMSO solution in extracellular solution, and (3) adding further DMSO, such that the final test-solution has a concentration of either 300 nM or 3000 nM of the test-compound and contains 0.3% v/v DMSO. Compound effects are quantified as % block by dividing the current in presence of compound by the baseline current; two or three experiments are performed for each compound and the final value represents the mean of the results of each experiment.

SMILES strings stand for the structures.

Sequence of CXCR3 (P49682 whole entry): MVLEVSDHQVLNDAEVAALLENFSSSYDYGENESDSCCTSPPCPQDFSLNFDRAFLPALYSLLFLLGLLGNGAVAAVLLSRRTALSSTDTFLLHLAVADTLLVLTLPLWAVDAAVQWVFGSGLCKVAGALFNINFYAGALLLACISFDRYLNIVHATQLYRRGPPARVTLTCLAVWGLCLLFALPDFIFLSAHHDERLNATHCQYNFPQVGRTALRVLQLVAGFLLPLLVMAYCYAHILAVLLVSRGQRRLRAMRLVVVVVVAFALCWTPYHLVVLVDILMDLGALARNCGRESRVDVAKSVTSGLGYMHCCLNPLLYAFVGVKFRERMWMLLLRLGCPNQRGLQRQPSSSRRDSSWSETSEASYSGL
Sequence of human CXCR3A (P49682 whole entry): as above
Sequence of hERG K channel (Q12809 whole entry): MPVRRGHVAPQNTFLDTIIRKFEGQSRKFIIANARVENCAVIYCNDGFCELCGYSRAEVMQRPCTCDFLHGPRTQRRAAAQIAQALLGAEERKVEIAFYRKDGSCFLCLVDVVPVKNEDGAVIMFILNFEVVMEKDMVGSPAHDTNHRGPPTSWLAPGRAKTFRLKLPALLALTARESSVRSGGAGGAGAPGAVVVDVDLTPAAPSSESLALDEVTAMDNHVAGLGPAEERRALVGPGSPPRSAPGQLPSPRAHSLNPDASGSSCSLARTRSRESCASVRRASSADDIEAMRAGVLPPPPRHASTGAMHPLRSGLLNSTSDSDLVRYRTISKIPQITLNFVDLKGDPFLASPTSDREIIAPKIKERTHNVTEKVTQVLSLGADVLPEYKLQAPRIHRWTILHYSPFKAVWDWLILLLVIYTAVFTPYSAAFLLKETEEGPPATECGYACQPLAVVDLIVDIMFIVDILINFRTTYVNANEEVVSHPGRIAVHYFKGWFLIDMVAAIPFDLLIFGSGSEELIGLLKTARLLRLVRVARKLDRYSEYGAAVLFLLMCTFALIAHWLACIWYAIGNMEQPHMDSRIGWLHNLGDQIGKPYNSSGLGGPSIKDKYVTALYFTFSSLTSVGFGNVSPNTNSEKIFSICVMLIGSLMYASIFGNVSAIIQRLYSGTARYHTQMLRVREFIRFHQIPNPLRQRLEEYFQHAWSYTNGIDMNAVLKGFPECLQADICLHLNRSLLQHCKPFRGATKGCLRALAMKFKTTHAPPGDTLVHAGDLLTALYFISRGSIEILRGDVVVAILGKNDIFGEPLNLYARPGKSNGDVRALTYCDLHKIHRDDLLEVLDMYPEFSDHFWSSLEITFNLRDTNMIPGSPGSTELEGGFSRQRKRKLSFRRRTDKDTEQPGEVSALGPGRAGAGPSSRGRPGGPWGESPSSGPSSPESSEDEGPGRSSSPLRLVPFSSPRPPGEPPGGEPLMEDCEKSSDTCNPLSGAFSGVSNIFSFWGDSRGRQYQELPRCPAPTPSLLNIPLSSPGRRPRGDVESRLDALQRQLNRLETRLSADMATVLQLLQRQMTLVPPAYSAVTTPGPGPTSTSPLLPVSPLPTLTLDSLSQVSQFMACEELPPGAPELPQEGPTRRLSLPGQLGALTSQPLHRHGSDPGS

As for `CCOc1ncc(-c2nc(C(F)(F)F)sc2N2CCN(C(=O)Cn3cnc(C(C)C)n3)[C@H](C)C2)cn1` [Example 1, 1-{(R)-4-[4-(2-Ethoxy-pyrimidin-5-yl)-2-trifluoromethyl-thiazol-5-yl]-2-methyl-piperazin-1-yl}-2-(3-isopropyl-[1,2,4]triazol-1-yl)-ethanone], the IC50 on human CXCR3A was determined as 2.3 nM; against CXCR3, 299 nM. Besides, the “% block” value was 6% at hERG K channel (concentration 300 nM) and 20% on hERG K channel (concentration 3000 nM).
`CCOc1ncc(-c2nc(C(F)(F)F)sc2N2CCN(C(=O)Cn3cnc(CC)n3)[C@H](C)C2)cn1` [Example 2, 1-{(R)-4-[4-(2-Ethoxy-pyrimidin-5-yl)-2-trifluoromethyl-thiazol-5-yl]-2-methyl-piperazin-1-yl}-2-(3-ethyl-[1,2,4]triazol-1-yl)-ethanone]: the half-inhibitory concentration (IC50) on human CXCR3A turned out to be 1.6 nM; against CXCR3, 235 nM. Moreover, the “% block” value was −2% on hERG K channel (concentration 300 nM) and 4% at hERG K channel (concentration 3000 nM).
The matching figures for `CCOc1ncc(-c2nc(C(F)(F)F)sc2N2CCN(C(=O)Cn3cnc(C(C)(C)C)n3)[C@H](C)C2)cn1` [Example 3, 2-(3-tert-Butyl-[1,2,4]triazol-1-yl)-1-{(R)-4-[4-(2-ethoxy-pyrimidin-5-yl)-2-trifluoromethyl-thiazol-5-yl]-2-methyl-piperazin-1-yl}-ethanone]: 1 nM, 552 nM, 10% and 20%.
Take `CCOc1ncc(-c2nc(C(F)(F)F)sc2N2CCN(C(=O)Cn3cnc(COC)n3)[C@H](C)C2)cn1` [Example 4, 1-{(R)-4-[4-(2-Ethoxy-pyrimidin-5-yl)-2-trifluoromethyl-thiazol-5-yl]-2-methyl-piperazin-1-yl}-2-(3-methoxymethyl-[1,2,4]triazol-1-yl)-ethanone]: the IC50 on human CXCR3A was 13 nM; on CXCR3, 950 nM. The “% block” value on hERG K channel (concentration 300 nM) is listed as 5%; at hERG K channel (concentration 3000 nM), 10%.
In the same order, the values of `C[C@@H]1CN(c2sc(C(F)(F)F)nc2-c2cnc(C(F)(F)F)nc2)CCN1C(=O)Cn1cnc(C(N)=O)n1` [Example 5, 1-(2-{(R)-2-Methyl-4-[2-trifluoromethyl-4-(2-trifluoromethyl-pyrimidin-5-yl)-thiazol-5-yl]-piperazin-1-yl}-2-oxo-ethyl)-1H-[1,2,4]triazole-3-carboxylic acid amide] are 12 nM, 1710 nM, 1% and 5%.
As for `CCc1ncn(CC(=O)N2CCN(c3sc(C(F)(F)F)nc3-c3cnc(C(F)(F)F)nc3)C[C@H]2C)n1` [Example 6, 2-(3-Ethyl-[1,2,4]triazol-1-yl)-1-{(R)-2-methyl-4-[2-trifluoromethyl-4-(2-trifluoromethyl-pyrimidin-5-yl)-thiazol-5-yl]-piperazin-1-yl}-ethanone], the IC50 came to 2 nM on human CXCR3A and 148 nM on CXCR3. The “% block” value at hERG K channel (concentration 300 nM) is 5%; on hERG K channel (concentration 3000 nM), 22%.
`CC(C)c1ncn(CC(=O)N2CCN(c3sc(C(F)(F)F)nc3-c3cnc(C(F)(F)F)nc3)C[C@H]2C)n1` [Example 7, 2-(3-Isopropyl-[1,2,4]triazol-1-yl)-1-{(R)-2-methyl-4-[2-trifluoromethyl-4-(2-trifluoromethyl-pyrimidin-5-yl)-thiazol-5-yl]-piperazin-1-yl}-ethanone]: the IC50 at human CXCR3A came out at 1.3 nM; on CXCR3, 174 nM. Also, the figures for the “% block” value on hERG K channel (concentration 300 nM) and at hERG K channel (concentration 3000 nM) were 5% and 24%, respectively.
In the same order, the values of `C[C@@H]1CN(c2sc(C(F)(F)F)nc2-c2cnc(C(F)(F)F)nc2)CCN1C(=O)Cn1cnc(C(C)(C)C)n1` [Example 8, 2-(3-tert-Butyl-[1,2,4]triazol-1-yl)-1-{(R)-2-methyl-4-[2-trifluoromethyl-4-(2-trifluoromethyl-pyrimidin-5-yl)-thiazol-5-yl]-piperazin-1-yl}-ethanone] are 1.6 nM, 349 nM, 4% and 23%.
On to `COCc1ncn(CC(=O)N2CCN(c3sc(C(F)(F)F)nc3-c3cnc(C(F)(F)F)nc3)C[C@H]2C)n1` [Example 9, 2-(3-Methoxymethyl-[1,2,4]triazol-1-yl)-1-{(R)-2-methyl-4-[2-trifluoromethyl-4-(2-trifluoromethyl-pyrimidin-5-yl)-thiazol-5-yl]-piperazin-1-yl}-ethanone], for which the IC50 is 2.7 nM at human CXCR3A and 606 nM at CXCR3. The entries for the “% block” value at hERG K channel (concentration 300 nM) and on hERG K channel (concentration 3000 nM) were 2% and 11%, respectively.
In the same order, the values of `C[C@@H]1CN(c2sc(C(F)(F)F)nc2-c2cnc(C(F)(F)F)nc2)CCN1C(=O)Cn1cnc(CO)n1` [Example 10, 2-(3-Hydroxymethyl-[1,2,4]triazol-1-yl)-1-{(R)-2-methyl-4-[2-trifluoromethyl-4-(2-trifluoromethyl-pyrimidin-5-yl)-thiazol-5-yl]-piperazin-1-yl}-ethanone] are 5.2 nM, 809 nM, 6% and 17%.
As for `CCCc1ncn(CC(=O)N2CCN(c3sc(C(F)(F)F)nc3-c3cnc(C(F)(F)F)nc3)C[C@H]2C)n1` [Example 11, 1-{(R)-2-Methyl-4-[2-trifluoromethyl-4-(2-trifluoromethyl-pyrimidin-5-yl)-thiazol-5-yl]-piperazin-1-yl}-2-(3-propyl-[1,2,4]triazol-1-yl)-ethanone], the IC50 at human CXCR3A stood at 4.4 nM; on CXCR3 it was 221 nM. Further, the “% block” value turned out to be 5% on hERG K channel (concentration 300 nM) and 30% on hERG K channel (concentration 3000 nM).

The values are drawn from patent publication US10047080B2, “(R)-2-methyl-piperazine derivatives as CXCR3 receptor modulators” (Idorsia Pharmaceuticals Ltd., priority 2015, dated 2018).
